According to ChEMBL document CHEMBL3885881, “DrugMatrix”:

Species on record: Rattus norvegicus
Assay: DrugMatrix - Regimen: Daily Repeat
Assay type: toxicity, organism-based, Sprague-Dawley
Set-up: regimen Daily Repeat, gender Male, age 6-8 weeks
Settings: in vivo, po, route oral GAVAGE, […]; for ABSOLUTE BASOPHIL / ABSOLUTE EOSINOPHIL / ABSOLUTE LYMPHOCYTE / ABSOLUTE MONOCYTE / ABSOLUTE SEGMENTED NEUTROPHIL / BASOPHIL / EOSINOPHIL / ERYTHROCYTE COUNT / HEMATOCRIT / HEMOGLOBIN / LEUKOCYTE COUNT / LYMPHOCYTE / MEAN CORPUSCULAR HEMOGLOBIN / MEAN CORPUSCULAR HEMOGLOBIN CONCENTRATION / MEAN CORPUSCULAR VOLUME / MONOCYTE / NEUTROPHIL / NUCLEATED RED BLOOD CELLS / PLATELET COUNT: tissue Blood; for ALANINE AMINOTRANSFERASE / ALBUMIN / ALKALINE PHOSPHATASE / ASPARTATE AMINOTRANSFERASE / BLOOD UREA NITROGEN / CARBON DIOXIDE / CHLORIDE / CHOLESTEROL / CREATINE PHOSPHOKINASE / CREATININE / GLUCOSE / LACTATE DEHYDROGENASE / LIPASE / PHOSPHORUS / POTASSIUM / SODIUM / TOTAL BILIRUBIN / TOTAL PROTEIN / URIC ACID: tissue Plasma
[1] = 0 mg/kg, 72 h, dose level Control, time 3 day
[2] = 0 mg/kg, 120 h, dose level Control, time 5 day
[3] = 0 mg/kg, dose level Control, time 28 day
[4] = 56 mg/kg, 72 h, dose level Low, time 3 day

Compound: NC[C@@H]1O[C@H](O[C@H]2[C@@H](O)[C@H](O[C@@H]3[C@@H](O)[C@H](N)C[C@H](N)[C@H]3O[C@H]3O[C@H](CN)[C@@H](O)[C@H](O)[C@H]3N)O[C@@H]2CO)[C@H](N)[C@@H](O)[C@@H]1O [FRAMYCETIN]
- ABSOLUTE BASOPHIL [1]: 0 CELLS/uL
- ABSOLUTE EOSINOPHIL [1]: 33 CELLS/uL
- ABSOLUTE LYMPHOCYTE [1]: 9048.5 CELLS/uL
- ABSOLUTE MONOCYTE [1]: 80.17 CELLS/uL
- ABSOLUTE SEGMENTED NEUTROPHIL [1]: 1521.67 CELLS/uL
- BASOPHIL [1]: 0%
- EOSINOPHIL [1]: 0.17%
- ERYTHROCYTE COUNT [1]: 5.46 x10E6/uL
- HEMATOCRIT [1]: 32.87%
- HEMOGLOBIN [1]: 12.95 G/DL
- LEUKOCYTE COUNT [1]: 10.68 x10E3/uL
- LYMPHOCYTE [1]: 86.67%
- MEAN CORPUSCULAR HEMOGLOBIN [1]: 23.72 pg
- MEAN CORPUSCULAR HEMOGLOBIN CONCENTRATION [1]: 39.4 G/DL
- MEAN CORPUSCULAR VOLUME [1]: 60.18 fL
- MONOCYTE [1]: 0.83%
- NEUTROPHIL [1]: 12.33%
- NUCLEATED RED BLOOD CELLS [1]: 0 /100WBC
- PLATELET COUNT [1]: 1211.33 x10E3/uL
- ALANINE AMINOTRANSFERASE [1]: 76.67 u/L
- ALBUMIN [1]: 3.93 G/DL
- ALKALINE PHOSPHATASE [1]: 317.17 u/L
- ASPARTATE AMINOTRANSFERASE [1]: 81.17 u/L
- BLOOD UREA NITROGEN [1]: 12.33 mg/dL
- CARBON DIOXIDE [1]: 31.17 mmol/L
- CHLORIDE [1]: 98.33 MEQ/L
- CHOLESTEROL [1]: 67.17 mg/dL
- CREATINE PHOSPHOKINASE [1]: 312.33 u/L
- CREATININE [1]: 0.19 mg/dL
- GLUCOSE [1]: 165.5 mg/dL
- LACTATE DEHYDROGENASE [1]: 94.5 u/L
- LIPASE [1]: 9.83 u/L
- PHOSPHORUS [1]: 10.1 mg/dL
- POTASSIUM [1]: 5.16 MEQ/L
- SODIUM [1]: 143.02 MEQ/L
- TOTAL BILIRUBIN [1]: 0.2 mg/dL
- TOTAL PROTEIN [1]: 5.88 G/DL
- URIC ACID [1]: 0.68 mg/dL
- ABSOLUTE BASOPHIL [2]: 0 CELLS/uL
- ABSOLUTE EOSINOPHIL [2]: 14.67 CELLS/uL
- ABSOLUTE LYMPHOCYTE [2]: 9629.83 CELLS/uL
- ABSOLUTE MONOCYTE [2]: 72.5 CELLS/uL
- ABSOLUTE SEGMENTED NEUTROPHIL [2]: 1049.67 CELLS/uL
- NUCLEATED RED BLOOD CELLS [2]: 0.17 /100WBC
- CARBON DIOXIDE [2]: 26.4 mmol/L
- LACTATE DEHYDROGENASE [2]: 83.5 u/L
- LIPASE [2]: 85.83 u/L
- URIC ACID [2]: 0.8 mg/dL
- BASOPHIL [3]: 0.42%
- EOSINOPHIL [3]: 0.58%
- ERYTHROCYTE COUNT [3]: 8.06 x10E6/uL
- HEMATOCRIT [3]: 48.44%
- HEMOGLOBIN [3]: 16.34 G/DL
- LEUKOCYTE COUNT [3]: 13.04 x10E3/uL
- LYMPHOCYTE [3]: 85.12%
- MEAN CORPUSCULAR HEMOGLOBIN [3]: 20.26 pg
- MEAN CORPUSCULAR HEMOGLOBIN CONCENTRATION [3]: 33.74 G/DL
- MEAN CORPUSCULAR VOLUME [3]: 60.1 fL
- MONOCYTE [3]: 1.44%
- NEUTROPHIL [3]: 11.28%
- PLATELET COUNT [3]: 1226 x10E3/uL
- ALANINE AMINOTRANSFERASE [3]: 28.6 u/L
- ALBUMIN [3]: 3.94 G/DL
- ALKALINE PHOSPHATASE [3]: 254.6 u/L
- ASPARTATE AMINOTRANSFERASE [3]: 67.8 u/L
- BLOOD UREA NITROGEN [3]: 10.4 mg/dL
- CHLORIDE [3]: 104.6 MEQ/L
- CHOLESTEROL [3]: 57.6 mg/dL
- CREATINE PHOSPHOKINASE [3]: 224.8 u/L
- CREATININE [3]: 0.4 mg/dL
- GLUCOSE [3]: 140.6 mg/dL
- PHOSPHORUS [3]: 10.66 mg/dL
- POTASSIUM [3]: 6.58 MEQ/L
- SODIUM [3]: 148.6 MEQ/L
- TOTAL BILIRUBIN [3]: 0.24 mg/dL
- TOTAL PROTEIN [3]: 6.64 G/DL
- ABSOLUTE BASOPHIL [4]: 0 CELLS/uL
- ABSOLUTE EOSINOPHIL [4]: 0 CELLS/uL
- ABSOLUTE LYMPHOCYTE [4]: 8427.33 CELLS/uL
- ABSOLUTE MONOCYTE [4]: 92.67 CELLS/uL
- ABSOLUTE SEGMENTED NEUTROPHIL [4]: 980 CELLS/uL
- BASOPHIL [4]: 0%
- EOSINOPHIL [4]: 0%
- ERYTHROCYTE COUNT [4]: 5.46 x10E6/uL
- HEMATOCRIT [4]: 33.8%
- HEMOGLOBIN [4]: 13.4 G/DL
- LEUKOCYTE COUNT [4]: 9.5 x10E3/uL
- LYMPHOCYTE [4]: 88.67%
- MEAN CORPUSCULAR HEMOGLOBIN [4]: 24.57 pg
- MEAN CORPUSCULAR HEMOGLOBIN CONCENTRATION [4]: 39.63 G/DL
- MEAN CORPUSCULAR VOLUME [4]: 61.9 fL
- MONOCYTE [4]: 1%
- NEUTROPHIL [4]: 10.33%
- NUCLEATED RED BLOOD CELLS [4]: 0 /100WBC
- PLATELET COUNT [4]: 1108.33 x10E3/uL
- ALANINE AMINOTRANSFERASE [4]: 81 u/L
- ALBUMIN [4]: 4.1 G/DL
- ALKALINE PHOSPHATASE [4]: 367.33 u/L
- ASPARTATE AMINOTRANSFERASE [4]: 87 u/L
- BLOOD UREA NITROGEN [4]: 11.67 mg/dL
- CARBON DIOXIDE [4]: 33.33 mmol/L
- CHLORIDE [4]: 97 MEQ/L
- CHOLESTEROL [4]: 89.67 mg/dL
- CREATINE PHOSPHOKINASE [4]: 277.67 u/L
